Measurements reported in PMC11511194, “Key Factors for Improving Predictive Accuracy and Avoiding Overparameterization of the PBPK Absorption Model in Food Effect Studies of Weakly Basic Water-Insoluble Compounds in Immediate Release Formulations” (Pharmaceutics, 2024).
Like-named read-outs stand apart in the source and are kept apart here.

Experiments:
Caco-2 = details: Apical pH : Basolateral pH 7.4 : 7.4, Passive&Active, cited from earlier work
[1] = ticagrelor metabolite; supplement ref 14; cited from earlier work
[2] = active metabolite of ticagrelor; supplement ref 17; cited from earlier work
[3] = Additional hepatic/systemic clearance fitted in PBPK model
From the text: (§1) S2. PBPK model development and validation physicochemical parameters for these three model drugs, including protein binding and Blood-to-Plasma (B/P) ratio, were obtained from experimental results, while log P and pKa were estimated based on the molecular formula using Gastro Plus ADMET software (version 10.3, […]
(§2) S2.1. Rivaroxaban PBPK model development and validation
S2.1.1. Rivaroxaban PBPK model development for metabolism and elimination module […]
its systemic clearance, CLint_CYP3A4, CLint_CYP2J2 and CLHLM were fitted according to the metabolic fraction of rivaroxaban in vivo and concentration-time profiles from the SAD clinical trial in Caucasian subjects under fasted state. […]
permeability-limited kidney and liver models were employed to account for the active efflux […]
Physicochemical properties

CYP3A4 = CYP3A4 intrinsic clearance fitted in PBPK model; details: Fitted to clinical PK profiles
From the text: as §1, §2
S2.1.1. Rivaroxaban PBPK model development for metabolism and elimination module Given that the metabolic fractions of CYP3A4 and CYP2J2 to the systemic clearance of rivaroxaban were approximately 18% and 14% [1], respectively, and liver hydrolases contributed to about 14% of its systemic clearance, CLint_CYP3A4, CLint_CYP2J2 and CLHLM were fitted according to the metabolic fraction of rivaroxaban in vivo and concentration-time profiles from the SAD clinical trial in Caucasian subjects under fasted state. Considering that rivaroxaban was a substrate of P-gp transporter, and that about 36% and 7% of the parent drug were directly excreted by the kidney and liver, respectively, rivaroxaban may undergo active efflux through the kidney and liver in vivo [2]. Consequently, permeability-limited kidney and liver models were employed to account for the active efflux mechanism of P-gp for rivaroxaban. These models include both passive diffusion and active transport.
Clearances for passive diffusion in the kidney and liver was calculated using Equation S1 [5] and Equation S2 [6], respectively.
CL௉஽,௜ =2×P௔௣௣ × TSA௜ ሺS1ሻ where CLPD,i is the passive diffusion clearance of the drug in compartment i, Papp is the apparent permeability of the drug, and the TSAi is the regional tubular surface area of compartment i.
Log CL௉஽ =0.82×logD଻.ସ +0.5 ሺS2ሻ where CLPD is the passive diffusional clearance of APIs in the liver, and log D 7.4 is the oil-water partition coefficient at pH 7.4 [6] […]
Blood-to-plasma partition ratio 0.714 Measured
Fraction unbound in plasma 0.065 Measured […]
Caco-2(10-6cm/s) (Rivaroxaban) 8.103 Measured […]

Caco-2 permeability = type: in vitro ADME; details: human, Apical pH : Basolateral pH 7.4 : 7.4, Passive&Active, Table S6 source 'Measured'
Experimental: Precipitation parameters, such as critical supersaturation ratio (CSC) and precipitation rate constant (PRC), were evaluated when precipitation occurs in the neutral intestinal environment after the mixture of solution and undissolved substance is transferred from the gastric chamber in vitro. These parameters were evaluated by fitting the two-stage dissolution profile according to the crystallization kinetics equations [28, 29, 30]. The absorption module of the PBPK models for rivaroxaban, ticagrelor, and PB-201 was developed using the Advanced Dissolution, Absorption and Metabolism (ADAM) model, which incorporates a mechanistic framework based on drug permeability and the diffusion layer model (DLM). The calibrated permeability of drugs, as determined using the Caco-2 Transwell model, was used to represent the permeability of drugs in vivo [31]. The particle size of the APIs used in the formulation development was incorporated into the Particle Population Balance (PPB) option. The full PBPK model, which includes the predicted steady-state distribution volume (Vss) and tissue-plasma partition coefficient (Kp), was utilized to describe the distribution characteristics of these compounds. The Kp scalar was estimated via sensitive analysis to match observed concentration-time (C-T) profiles. […]

For COCCc1ccc(OCC(O)CNC(C)C)cc1 (centres unmarked) [Metoprolol], the Caco-2 permeability (Caco-2; supplement ref 19) is given as 15.0 10-6cm/s.

For CCCSc1nc(N[C@@H]2C[C@H]2c2ccc(F)c(F)c2)c2nnn([C@@H]3C[C@H](O)[C@@H](O)[C@H]3O)c2n1 [AR-C124910XX], the “Fraction unbound in plasma” value [1] is given as 0.002, the renal excretion [2] is given as “about 0.04%” and the “Additional HLM CLint” value [3] is given as 5000 μL/min/mg protein. For the same molecule, the “Intrinsic clearance of CYP 3A4” value (CYP3A4) was 6.000 µL/min/pmol.

For CC(C)NCC(O)COc1cccc2ccccc12 (centres unmarked) [Propranolol], the Papp (Caco-2 permeability) is listed as 29.4 ×10⁻⁶ cm/s and the Caco-2 permeability (Caco-2; supplement ref 4) is listed as 31 10-6cm/s.

In the case of CN/C(=N/CCSCc1nc[nH]c1C)NC#N [Cimetidine], the Caco-2 permeability (Caco-2; supplement ref 4) is given as 2.36 10-6cm/s.
